Here are results for two molecules from US20120115806A1 (SANOFI, priority 2009, published 2012).

Data set [1] has as its system patients with metastatic breast cancer. The experiment in a line: Phase I/II study: tolerance and treatment characteristics.
Experimental: Part 2: the antitumor activity and the characterization of the tolerance profile were determined at the recommended dose.
The capecitabine is administered orally twice a day, in the morning and evening, from day D1 to day D14 (from the 1st to the 14th day of the cycle).
The doses could be reduced and the treatment cycle duration could be extended in the case of a severe adverse event (AE). The treatment was continued until disease progression, the presence of an unacceptable AE or the withdrawal of patient consent.
A physical examination, complete differential leukocyte and blood counts, and blood chemistry analyses were carried out before the recruitment of the patients and regularly during treatment. Tumor evaluation by radiology was carried out at recruitment of the patients and every 6 weeks. The responses were confirmed by 2 evaluations at least 4 weeks apart. Supplementary data were collected every 6 weeks until the date the study was stopped.
For data set [2], the system named is taxane-resistant metastatic breast cancer. The following applies: 1-h i.v. infusion every 3 weeks; Ann. Oncol. 2008, 19(9), 1547-1552; cited from earlier work.
The nature of data set [3]: Phase I/II study: pharmacokinetics and drug interaction study. The following applies: patients, part 1; parent and metabolite.
Data set [4] concerns Thymidine Phosphorylase (TP) expression in MCF-7 breast carcinoma cells. The settings on record: especially with MCF-7 breast carcinoma cells; abstract, French Pharmacology Society Conference 2008; cited from earlier work.
The subject of data set [5] is patients with metastatic breast cancer previously treated with anthracyclines and taxanes. The following applies: cabazitaxel (D1) in combination with capecitabine (twice a day, D1-14).
Text: The main inclusion criteria were an age of 18 or older, a histologically proven metastatic or locally recurrent breast cancer that was inoperable, an Eastern Cooperative Oncology Group performance status (ECOG PS) of 0 to 2, prior exposure to taxanes and to anthracyclines, and adequate hematological, renal and hepatic function.
The main exclusion criteria were a simultaneous cancer, more than one chemotherapy treatment for metastatic cancer, prior exposure to capecitabine, or uncontrolled significant comorbid conditions.
Thirty-three patients with metastatic breast cancer were included in the study, all previously treated with anthracyclines and taxanes: 15 patients for part 1 and 18 for part 2.
The dose-limiting toxicities (DLTs), i.e. the list of events to be monitored, which make it possible to guide the dose escalation, were first of all predefined in the protocol in accordance with the NCI-CTCAE classification scale, version 3.
The increase in doses was studied in groups of three patients as long as no DLT was observed.
The mark [6] stands for this setting: DL2: 20 mg/m^2 cabazitaxel + 2 × 1000 mg/m^2/day capecitabine for 14 days, 21 patients.
The mark [7] stands for this setting: Total, all dose levels, 33 patients.

Regarding “4α-acetoxy-2α-benzoyloxy-5β,20-epoxy-1β-hydroxy-β,10β-dimethoxy-9-oxotax-11-en-13α-yl (2R,3S)-3-tert-butoxycarbonylamino-2-hydroxy-3-phenylpropionate [cabazitaxel]”, the “Number of patients with dose reduction” value in data set [1] (setting [6]) is 4; in data set [1] (setting [7]), 10. The “efficacy in taxane-resistant metastatic breast cancer” value in data set [2] was “can be effective”. For the same molecule, the “pharmacokinetics affected by coadministration of the other agent” value in data set [3] was “do not appear to be affected”. The “induction of TP expression” value in data set [4] is “induces TP expression”.

For the molecule `CCCCCOC(=O)Nc1nc(=O)n([C@@H]2O[C@H](C)[C@@H](O)[C@H]2O)cc1F` [capecitabine, 5′-deoxy-5-fluoro-N4-(pentyloxycarbonyl)cytidine N-[1-(5-deoxy-beta-D-ribofuranosyl)-5-fluoro-2-oxo-1,2-dihydropyrimidin-4-yl]carbamic acid pentyl ester], the “maximal administered dose (MAD)” value in data set [5] came out at 1000 mg/m^2. Moreover, the “recommended dose (RD)” value in data set [5] (highest dose at which less than 33% of patients exhibited a DLT) turned out to be 1000 mg/m^2. The “Number of patients with dose reduction” value was 3 in data set [1] (setting [6]) and 7 in data set [1] (setting [7]). Besides, the “pharmacokinetics affected by coadministration of the other agent” value in data set [3] is “vice versa”.
